According to US12246009B2, “Compositions and methods for treating neurodegenerative, myodegenerative, and lysosomal storage disorders” (GEORGETOWN UNIVERSITY, priority 2018, dated 2025):
Entries after “also recorded” stand apart in the source; their conditions may differ.

Assays:
APP mice = assay: Morris Water Maze test in APP mice; format: in vivo, mouse; conditions: 1.25 mg/kg, trend, no significant difference between groups
human alpha-synuclein = assay: Human alpha-synuclein ELISA and immunoblot in A53T mice; format: in vivo, mouse; conditions: 2.5 mg/kg i.p.; for alpha-synuclein level in A53T mice: vs DMSO
Ab1 = molecular target: T1, Ab1 (Mus musculus, UniProt P00520); assay: Activated (phosphorylated) Ab1 (245) immunoblot in transgenic APP mice; format: in vivo; conditions: i.p., 21 days
T1 construct: Brains from treated mice compared with DMSO treated mice were homogenized in STEN lysis buffer; from tissue; host or cells: brain of rTg4510 or TgAPP mice
T1 sequence (P00520 whole entry): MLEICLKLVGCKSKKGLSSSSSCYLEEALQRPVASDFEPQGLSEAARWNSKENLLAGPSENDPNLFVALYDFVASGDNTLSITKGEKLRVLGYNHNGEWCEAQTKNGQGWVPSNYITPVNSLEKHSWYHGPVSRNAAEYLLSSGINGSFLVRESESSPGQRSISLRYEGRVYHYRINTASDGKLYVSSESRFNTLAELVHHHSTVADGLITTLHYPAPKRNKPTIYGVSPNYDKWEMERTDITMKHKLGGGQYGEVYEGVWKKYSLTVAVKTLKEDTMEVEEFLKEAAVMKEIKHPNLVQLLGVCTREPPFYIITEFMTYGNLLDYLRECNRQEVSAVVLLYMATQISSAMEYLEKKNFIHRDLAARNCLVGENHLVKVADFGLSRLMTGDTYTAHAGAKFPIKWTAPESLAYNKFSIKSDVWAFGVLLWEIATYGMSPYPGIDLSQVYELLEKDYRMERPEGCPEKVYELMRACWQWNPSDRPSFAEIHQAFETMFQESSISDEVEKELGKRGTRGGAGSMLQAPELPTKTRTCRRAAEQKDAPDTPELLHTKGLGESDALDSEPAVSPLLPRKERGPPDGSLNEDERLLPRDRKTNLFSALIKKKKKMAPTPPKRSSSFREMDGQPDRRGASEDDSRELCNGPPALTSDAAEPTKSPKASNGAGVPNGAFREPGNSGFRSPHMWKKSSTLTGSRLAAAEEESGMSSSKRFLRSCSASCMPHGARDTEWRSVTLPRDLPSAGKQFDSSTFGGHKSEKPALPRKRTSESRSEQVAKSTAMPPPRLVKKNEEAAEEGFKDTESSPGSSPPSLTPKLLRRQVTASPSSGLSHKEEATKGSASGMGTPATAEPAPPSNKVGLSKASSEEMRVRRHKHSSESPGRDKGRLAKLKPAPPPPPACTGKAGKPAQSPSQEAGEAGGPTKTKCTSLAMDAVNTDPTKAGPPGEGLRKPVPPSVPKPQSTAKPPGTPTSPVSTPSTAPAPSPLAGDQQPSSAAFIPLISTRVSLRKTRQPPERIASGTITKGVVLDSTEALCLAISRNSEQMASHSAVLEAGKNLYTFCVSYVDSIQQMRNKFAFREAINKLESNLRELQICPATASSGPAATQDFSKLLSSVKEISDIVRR

A53T mice = assay: Open field test in A53T mice; format: in vivo, mouse; conditions: 60-minute trial
DDR1 [1] = molecular target: T2, DDR1 (Mus musculus, UniProt Q03146); assay: Phosphorylated (active) DDR1 (pMCK10) immunoblot in rTG4510 mice; format: in vivo; conditions: for phosphorylated (active) DDR1 (pMCK10), immunoblot: 1.25 mg/kg or 2.5 mg/kg i.p.
T2 construct: Brains were collected and homogenized in 1.0 ml 1× STEN buffer; from tissue; host or cells: brain of rTg4510 or TgAPP mice
T2 sequence (Q03146 20-911): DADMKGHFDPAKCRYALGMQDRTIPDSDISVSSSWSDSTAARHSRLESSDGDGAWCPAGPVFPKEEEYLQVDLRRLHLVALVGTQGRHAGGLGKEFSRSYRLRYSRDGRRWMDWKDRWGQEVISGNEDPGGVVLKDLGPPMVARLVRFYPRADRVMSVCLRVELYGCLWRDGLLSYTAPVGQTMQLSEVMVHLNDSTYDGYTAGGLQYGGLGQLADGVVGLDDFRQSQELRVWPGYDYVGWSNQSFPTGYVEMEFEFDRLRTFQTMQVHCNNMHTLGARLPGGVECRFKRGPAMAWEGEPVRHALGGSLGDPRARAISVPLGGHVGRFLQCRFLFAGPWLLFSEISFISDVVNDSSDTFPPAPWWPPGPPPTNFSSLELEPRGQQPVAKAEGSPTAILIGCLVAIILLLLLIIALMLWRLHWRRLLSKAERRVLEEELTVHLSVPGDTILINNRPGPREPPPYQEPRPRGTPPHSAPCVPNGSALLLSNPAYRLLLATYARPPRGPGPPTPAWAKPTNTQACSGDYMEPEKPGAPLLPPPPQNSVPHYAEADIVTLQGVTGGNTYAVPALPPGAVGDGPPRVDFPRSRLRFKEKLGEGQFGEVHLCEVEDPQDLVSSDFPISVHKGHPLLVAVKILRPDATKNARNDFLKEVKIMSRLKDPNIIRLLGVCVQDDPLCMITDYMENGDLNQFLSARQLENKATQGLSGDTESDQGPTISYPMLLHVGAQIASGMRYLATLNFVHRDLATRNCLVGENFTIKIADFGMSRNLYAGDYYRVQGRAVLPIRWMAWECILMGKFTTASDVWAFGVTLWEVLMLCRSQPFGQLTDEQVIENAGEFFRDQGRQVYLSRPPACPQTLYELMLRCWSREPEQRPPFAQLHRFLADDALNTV

B35 cells = assay: MTT assay, cell viability; format: cell-based, rat; conditions: 1 μM, 16 hours of treatment, compared to control
Description: Rat neuroblastoma B35 cells were grown in Dulbecco's Modified Eagle's Medium (DMEM) with 10% Fetal Bovine Serum (FBS) and 1% penicillin/streptomycin and incubated at 37° C. with 5% CO2. For the experiments, cells were transferred to 12-well plates (Cat. #150628, ThermoFisher, Waltham, MA) and grown to at least 70% confluence. Transient transfection was performed with 3 μg P301 L tau (Cat. #30145, Addgene) cDNA or 3 μg human α-synuclein cDNA using Fugene HD transfection reagent (Cat. #E2311, Promega, Madison WI) for 24 hours. Cells were treated with 1 mM, 100 μM, 10 μM, 1 μM, 0.1 μM, 0.01 μM, and 0.001 μM dissolved in DMSO or an equivalent 5 ul of DMSO for 5 hours. Cell culture media was collected and cells were harvested using sodium-tris, EDTA, NP-40 (STEN) buffer and centrifuged at 10,000×g for 20 minutes at 4′C and supernatant was collected. Cell viability was determined via lactate dehydrogenase assay (Cat. #88954, Thermofisher) and MTT assay (Cat. #V13154, Thermofisher). […]
To measure cell viability, cells were incubated with 500 μL of Dulbecco's Modified Eagle's Medium (DMEM) containing 50 μL of (3-[4,5-dimethylthiazol-2-yl]-2,5-diphenyl-tetrazolium bromide (MTT)) for 4 hours at 37° C. and 5% CO2. […] Absorbance was read against a blank containing 125 uL of media and MTT, and 250 uL of DMS at 570 nm.

DDR1 [2] = molecular target: T2, DDR1; assay: Phosphorylated DDR1 immunoblot in transgenic APP mice; format: in vivo; conditions: 21 days
hippocampus of APP mice = assay: Nissl staining of hippocampal sections of APP mice (cell death); conditions: 1.25 mg/kg and 2.5 mg/kg
pTau (181) = pTau (181) ELISA/Xmap in Tau expressing transgenic (rTG4510) mice; format: in vivo, mouse
pTau (231) (AT180) = pTau (231) (AT180) Western blot in rTG4510 transgenic mice; format: in vivo, mouse; conditions: 1.25 mg/kg, 2.5 mg/kg or 5.0 mg/kg
amyloid-beta (6E10) = assay: Amyloid-beta (6E10) immunoblot in transgenic APP mice; format: in vivo, mouse; conditions: 1.25 and 2.5 mg/kg i.p., 21 consecutive days
dopamine = assay: Dopamine and homovanillic acid (HVA) levels in A53T mice; format: in vivo, mouse; conditions: 2.5 mg/kg i.p., 21 days

Cc1cccc(-c2cc3nccc(Nc4ccccc4)c3s2)c1 [BK40143, N-Phenyl-2-(m-tolyl)thieno[3,2-b]pyridin-7-amine]
distance travelled before first entry to the platform, Morris Water Maze (APP mice): lower distance travelled before the first entry | latency to the first entry, Morris Water Maze (APP mice): lower latency to first entry | number of platform entries, Morris Water Maze (APP mice): higher numbers of platform entries | reduction in the level of human alpha-synuclein, ELISA (human alpha-synuclein; 21 consecutive days, vs DMSO treated A53T mice): 39% | alpha-synuclein level in A53T mice (human alpha-synuclein; 21 consecutive days, 2.5 mg/kg): significantly reduces | alpha-synuclein level in A53T mice (human alpha-synuclein; 21 consecutive days, listed as BK-40143, 2.5 mg/kg): significantly decreased | reduction in alpha-synuclein, immunoblots (human alpha-synuclein; 21 days, immunoblots mirrored the ELISA): 40% | activated (phosphorylated) Ab1 (245) (Ab1): does not engage Ab1; also recorded: did not engage Ab1 | total distance travelled, open field (A53T mice): did not show any difference | total time spent moving, open field (A53T mice): did not show any difference | velocity of movements, open field (A53T mice): significantly increased | phosphorylated (active) DDR1 (pMCK10), immunoblot (DDR1 [1]; rTG4510 mice, 7 days): deactivated DDR; also recorded: deactivated DDR1 | phosphorylated (active) DDR1 (pMCK10), immunoblot (DDR1 [1]; rTG4510 mice, 7 days, listed as BK-40143): in vivo inhibition of DDR1 | deactivation of DDR1 (phosphorylated DDR1 immunoblot) (DDR1 [1]; rTG4510 mice, 5 mg/kg i.p., 7 days): not | deactivation of DDRs (DDR1 [1]; rTG4510 tauopathy mouse model, i.p., 7 consecutive days): about 50% | MTT, neuroprotective effect (B35 cells): increase | deactivation of DDR1 (phosphorylated DDR1 immunoblot) (DDR1 [2]; 1.25 mg/kg i.p.): 40% | deactivation of DDR1 (phosphorylated DDR1 immunoblot) (DDR1 [2]; 2.5 mg/kg i.p.): 31% | cell death in the hippocampus (Nissl staining intensity) (hippocampus of APP mice): does not cause cell death | pTau (181) level, ELISA (pTau (181); Tau expressing transgenic mice, seven days of treatment): reduces pTau (181) | phosphorylated Tau (AT181), ELISA (pTau (181); rTG4510 mice, 2.5 mg/kg i.p., 7 consecutive days, 2.5 mg/kg): significantly reduced phosphorylated Tau | levels of pTau (231) (AT180), Western blot (pTau (231) (AT180)): did not affect | aggregating extracellular amyloid-beta (6E10), immunoblot (amyloid-beta (6E10)): significantly reduced amyloid-beta plaques | level of the dopamine metabolite homovanillic acid (HVA) (dopamine): increase | increase of overall level of dopamine (dopamine; 2.5 mg/kg): 30% | increase of overall level of dopamine (dopamine; listed as BK-40143, 2.5 mg/kg): about 30%
